From patent publication US12036210B2, “Heteroaryl substituted beta-hydroxyethylamines for use in treating hyperglycaemia” (ATROGI AB, priority 2017, dated 2024) come the findings set out here.

Where a name gives a salt, the structure may show the parent alone.

One experiment has as its system L6-myotubes. The experiment can be described thus: Glucose uptake (3H-2-deoxy-glucose) in differentiated L6-myotubes. It is filed as cell-based. The settings on record: agonist final concentration 1×10^−5, 50 nM 3H-2-deoxy-glucose, relative to isoproterenol, read-out: Biological example 1 (glucose uptake, activity compared to that of isoproterenol). Here is the method: (§1) L6-myoblasts were grown in Dulbecco's Modified Eagle's Medium (DMEM) containing 4.5 g/I glucose supplemented with 10% fetal bovine serum, 2 mM L-Glutamine, 50 U/ml penicillin, 50 μg/ml streptomycin and 10 mM HEPES. Cells were plated at 1×10^5 cells per ml in 24-well plates. After reaching 90% confluence the cells were grown in medium containing 2% FBS for 7 days where upon cells differentiated into myotubes.
Differentiated L6-myotubes were serum-starved over night in medium containing 0.5% fatty-acid free BSA and stimulated with agonist, final concentration 1×10^−5. After 1 h 40 min cells were washed with warm, glucose free medium or PBS and another portion of agonist was added to glucose free medium. After 20 min the cells were exposed to 50 nM ^3H-2-deoxy-glucose for another 10 min before washed in ice cold glucose free medium or PBS and lysed in 0.2 M NaOH for 1 h in 60° C.

The subject of experiment [1] is Intracellular cAMP levels. The experiment is described as follows: Measurement of intracellular cAMP levels in differentiated L6 cells (alpha screen cAMP kit). Format: cell-based. The settings on record: Rattus norvegicus, L6, 0.25 h, agonist final concentration 1×10^−5 for 15 min, 1 mM IBMX, relative to isoproterenol, read-out: Biological example 2 (intracellular cAMP levels, activity compared to that of isoproterenol). Here is the method: as §1
Differentiated cells were serum-starved over night and stimulated with agonist, final concentration 1×10^−5, for 15 min in stimulation buffer (HBSS supplemented with 1% BSA, 5 mM HEPES and 1 mM IBMX, pH 7.4) The medium was then aspirated and to end the reaction 100 μL of 95% EtOH was added to each well of a 24-well plate and cells were kept in −20° C. over night. The EtOH was let to evaporate and 500 μL of lysis buffer (1% BSA, 5 mM HEPES and 0.3% Tween-20, pH 7.4) was added to each well before put in −80° C. for 30 min and then kept in −20° C. Intracellular cAMP levels were detected using an alpha screen cAMP kit (6760635D from Perkin Elmer). The activity for each compound is compared to that of isoproterenol.
For orientation: cAMP levels reflect the balance of adenylyl cyclase and phosphodiesterase activity.

Regarding `CCCCNC[C@H](O)c1ccnc(N)n1` [Example 5, (S)-1-(2-Aminopyrimidin-4-yl)-2-(butylamino)ethan-1-ol], the results for the Emax (with L6-myotubes; in experiment [1]) were 25 to 50% and below 25%, respectively.

For the molecule `CCCCNCC(O)c1cc[nH]c(=O)c1` (stereo not drawn) [Example 4, 4-(2-(Butylamino)-1-hydroxyethyl)pyridin-2(1H)-one acetate], the results for the Emax (with L6-myotubes; in experiment [1]) were 50 to 75% and below 25%, respectively.

Take `CCCCNCC(O)c1ccncc1` (stereo not drawn) [Example 6, 2-(Butylamino)-1-(pyridin-4-yl)ethan-1-ol]: the Emax in the experiment with L6-myotubes was 25 to 50%; in experiment [1], below 25%.

Regarding `CCCCNC[C@H](O)c1cnc(NC(=O)C(C)C)s1` [Example 8, (S)—N-(5-(2-(Butylamino)-1-hydroxyethyl)thiazol-2-yl)isobutyramide], the Emax in the experiment on L6-myotubes is 25 to 50%; in experiment [1] it was below 25%.

As to `CC(C)(C)NC[C@H](O)c1cncc(O)c1` [Example 13, (R)-5-(2-(tert-Butylamino)-1-hydroxyethyl)pyridin-3-ol dihydrochloride], the Emax is above 75% in the experiment on L6-myotubes and below 25% in experiment [1].

For `CC(C)(C)NC[C@H](O)c1cncc(F)c1` [Example 17, (R)-2-(tert-Butylamino)-1-(5-fluoropyridin-3-yl)ethan-1-ol], the Emax is above 75% in the experiment on L6-myotubes and 25 to 50% in experiment [1].

As for `CCCCNCC(O)c1ccc(=O)[nH]c1` (stereo not drawn) [Example 3, 5-(2-(Butylamino)-1-hydroxyethyl)pyridin-2(1H)-one], the Emax in the experiment on L6-myotubes was 25 to 50%; in experiment [1], below 25%.

Turning to `CCCCNC[C@H](O)c1cnc(NC(=O)C(C)C)nc1` [Example 10, (R)—N-(5-(2-(Butylamino)-1-hydroxyethyl)pyrimidin-2-yl)isobutyramide hydrochloride], the Emax with L6-myotubes was 50 to 75%; in experiment [1], below 25%.

Regarding `CC(C)(C)NC[C@H](O)c1ccc(O)cn1` [Example 12, (S)-6-(2-(tert-Butylamino)-1-hydroxyethyl)pyridin-3-ol], the Emax in the experiment on L6-myotubes is 50 to 75%; in experiment [1] it was below 25%.

For `CC(C)(C)NC[C@H](O)c1ncccc1Cl` [Example 20, (S)-2-(tert-Butylamino)-1-(3-chloropyridin-2-yl)ethan-1-ol dihydrochloride], the Emax in the experiment with L6-myotubes is 25 to 50%; in experiment [1] it was below 25%.

As for `CCCCNC[C@H](O)c1csc(N)n1` [Example 1, (S)-1-(2-Aminothiazol-4-yl)-2-(butylamino)ethan-1-ol hydrochloride], the figures for the Emax (in the experiment with L6-myotubes; in experiment [1]) were 25 to 50% and below 25%, respectively.

For `CCCCNC[C@H](O)c1csc(C(F)(F)F)n1` [Example 2, (S)-2-(Butylamino)-1-(2-(trifluoromethyl)thiazol-4-yl)ethan-1-ol hydrochloride], the Emax with L6-myotubes was 25 to 50%; in experiment [1], below 25%.

With `CC(C)(C)NC[C@H](O)c1ccc(Cl)cn1` [Example 21, (S)-2-(tert-Butylamino)-1-(5-chloropyridin-2-yl)ethan-1-ol dihydrochloride], the Emax is 25 to 50% in the experiment on L6-myotubes and below 25% in experiment [1].

Turning to `CC(C)(C)NCC(O)c1ccncc1O` (stereo not drawn) [Example 14, 4-(2-(tert-Butylamino)-1-hydroxyethyl)pyridin-3-ol hydrochloride], the Emax was above 75% in the experiment with L6-myotubes and below 25% in experiment [1].

`CCCCNC[C@H](O)c1cnc(N)s1` [Example 9, (S)-1-(2-Aminothiazol-5-yl)-2-(butylamino)ethan-1-ol dihydrochloride]: the Emax was 25 to 50% with L6-myotubes and below 25% in experiment [1].

As for `CCCCNC[C@H](O)c1cnc(N)nc1` [Example 11, (R)-1-(2-Aminopyrimidin-5-yl)-2-(butylamino)ethan-1-ol], the Emax in the experiment with L6-myotubes was 50 to 75%; in experiment [1], below 25%.

Regarding `Cn1ccc([C@@H](O)CNC(C)(C)C)cc1=O` [Example 15, (R)-4-(2-(tert-Butylamino)-1-hydroxyethyl)-1-methylpyridin-2(1H)-one], the Emax in the experiment on L6-myotubes is above 75%; in experiment [1], below 25%.

For the molecule `CC(C)(C)NC[C@H](O)c1cncc(Cl)c1` [Example 19, (R)-2-(tert-Butylamino)-1-(5-chloropyridin-3-yl)ethan-1-ol], the Emax with L6-myotubes is above 75%; in experiment [1], below 25%.

Take `CC(C)(C)NC[C@H](O)c1ccncc1F` [Example 18, (R)-2-(tert-Butylamino)-1-(3-fluoropyridin-4-yl)ethan-1-ol]: the Emax in the experiment with L6-myotubes was 25 to 50%; in experiment [1], below 25%.

For the molecule `CC(C)(C)NC[C@H](O)c1ccc(F)cn1` [Example 16, (S)-2-(tert-Butylamino)-1-(5-fluoropyridin-2-yl)ethan-1-ol], the Emax in the experiment with L6-myotubes is 50 to 75%; in experiment [1], below 25%.

Take `CCCCNCC(O)c1cccnc1` (stereo not drawn) [Example 7, 2-(Butylamino)-1-(pyridin-3-yl)ethan-1-ol]: the results for the Emax (in the experiment with L6-myotubes; in experiment [1]) were 50 to 75% and below 25%, respectively.
